“And” between values parts separate entries of the source, which are not always exact repeats. Equal entries are not always repeated. Numbered stars: 1 amine (or outer) side, 2 acyl side, 3 side chain; on linkers, the order of the positions; unused ones are H or OH. Bridge positions count the residues as written; N and C are the ends. Square brackets hold non-standard residues; d marks the D form. Peptide text beside a SMILES is read from it. X1 = C[C@H](c1ccc2ccccc2c1)[C@H](N[*:1])C(=O)[*:2]; Phe(4-NH2) = Nc1ccc(C[C@H](N)C(=O)O)cc1; 2Nal = N[C@@H](Cc1ccc2ccccc2c1)C(=O)O

The record followed here is patent publication US7238775B2, “Receptor(SSTR4)-selective somatostatin analogs” (The Salk Institute for Biological Studies, priority 2002, dated 2007).

Holding throughout (experiment): Displacement of 125I-[Leu8,D-Trp22,Tyr25]SRIF-28 from cloned receptor, membrane pellet autoradiography
What all share (format): binding

The target in one test is T1, hSSTR1 (Homo sapiens, UniProt P30872).
T1 construct: expressed in transfected cells; host or cells: CHO-K1 cells and CCL39 cells
To be noted: for IC50: inhibition of 125I-SRIF-28 radioligand binding, cloned human receptor. On the procedure:
(§1) In vitro Bioassay: The effects of the various somatostatin analogs are tested in vitro for their ability to bind to isolated cloned receptors expressed on CHO-K1 cells and CCL39 cells. CHO-K1 cells are grown in Ham's F-12 medium, and CCL39 cells are grown in Dulbecco's modified Eagle's medium/Ham's F-12(1:1) mix, supplemented with 10% fetal bovine serum, 100 U/ml penicillin and 100 μg/ml streptomycin, in humidified air containing 5% CO2 at 37° C.
(§2) Cells are washed twice with and scraped into ice-cold 0.05 M Tris-HCl (pH 7.4), collected by centrifugation, and homogenized using a rotor/stator/system in the same buffer. After centrifugation at 120 g for 5 min at 4° C., the supernatant is collected and centrifuged again at 48,000 g for 30 min at 4° C. The resulting pellet is resuspended in ice-cold Tris buffer, transferred into a microfuge tube, and centrifuged at 20,000 g for 15 min at 4° C. After withdrawal of the supernatant, the membrane pellet is stored at −80° C.
Receptor autoradiography is performed on 20 μm thick cryostat sections of the membrane pellets, mounted on microscope slides, and then stored at −20° C. […] […] […] IC50 values are calculated after quantification of the data using a computer-assisted image processing system as known in this art.
(§3) The numbers in parentheses indicate the number of times the particular binding test was carried out.

Another test deals with T2, hSSTR2 (Homo sapiens, UniProt P30874).
T2 construct: expressed in transfected cells; host or cells: CHO-K1 cells and CCL39 cells
On the procedure:
as §1, §2
(§4) Receptor autoradiography is performed on 20 μm thick cryostat sections of the membrane pellets, mounted on microscope slides, and then stored at −20° C. […] Increasing concentrations of the unlabeled peptide are used ranging from 0.1-1000 nM. […] IC50 values are calculated after quantification of the data using a computer-assisted image processing system as known in this art.
as §3

A further test concerns the target T3, hSSTR3 (Homo sapiens, UniProt P32745).
T3 construct: expressed in transfected cells; host or cells: CHO-K1 cells and CCL39 cells
On the procedure: as §1, §2, §4, §3

A further test concerns the target T4, hSSTR4 (Homo sapiens, UniProt P31391).
T4 construct: expressed in transfected cells; host or cells: CHO-K1 cells and CCL39 cells
The settings on record: for IC50: inhibition of 125I-SRIF-28 radioligand binding, cloned human receptor. Here is the method:
as §1, §2, §4, §3

Another test has as its target T5, hSSTR5 (Homo sapiens, UniProt P35346).
T5 construct: expressed in transfected cells; host or cells: CHO-K1 cells and CCL39 cells
On the procedure: as §1, §2, §4, §3

Where [1] appears, read: inhibition of 125I-SRIF-28 radioligand binding, cloned human receptor.

T1 sequence (P30872 whole entry): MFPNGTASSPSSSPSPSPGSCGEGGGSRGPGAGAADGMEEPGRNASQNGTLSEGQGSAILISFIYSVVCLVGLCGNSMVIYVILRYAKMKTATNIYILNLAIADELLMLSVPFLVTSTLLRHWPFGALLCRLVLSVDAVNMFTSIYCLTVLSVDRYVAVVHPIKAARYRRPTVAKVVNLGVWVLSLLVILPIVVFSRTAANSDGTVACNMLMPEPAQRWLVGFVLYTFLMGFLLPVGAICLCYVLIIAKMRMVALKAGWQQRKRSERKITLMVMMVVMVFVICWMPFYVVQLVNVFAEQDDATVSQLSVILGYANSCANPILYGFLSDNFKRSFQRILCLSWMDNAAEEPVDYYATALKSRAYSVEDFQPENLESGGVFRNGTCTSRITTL
T2 sequence (P30874 whole entry): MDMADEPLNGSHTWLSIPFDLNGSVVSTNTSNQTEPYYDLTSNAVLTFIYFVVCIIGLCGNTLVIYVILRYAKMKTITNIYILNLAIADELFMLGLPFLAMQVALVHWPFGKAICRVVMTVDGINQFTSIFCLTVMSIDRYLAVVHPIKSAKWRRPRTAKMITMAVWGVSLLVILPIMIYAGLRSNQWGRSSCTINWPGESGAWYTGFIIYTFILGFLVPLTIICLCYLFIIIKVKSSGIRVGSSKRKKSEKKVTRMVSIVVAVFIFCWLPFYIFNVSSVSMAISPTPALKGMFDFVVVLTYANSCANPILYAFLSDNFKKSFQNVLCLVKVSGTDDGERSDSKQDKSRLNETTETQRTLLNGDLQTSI
T4 sequence (P31391 whole entry): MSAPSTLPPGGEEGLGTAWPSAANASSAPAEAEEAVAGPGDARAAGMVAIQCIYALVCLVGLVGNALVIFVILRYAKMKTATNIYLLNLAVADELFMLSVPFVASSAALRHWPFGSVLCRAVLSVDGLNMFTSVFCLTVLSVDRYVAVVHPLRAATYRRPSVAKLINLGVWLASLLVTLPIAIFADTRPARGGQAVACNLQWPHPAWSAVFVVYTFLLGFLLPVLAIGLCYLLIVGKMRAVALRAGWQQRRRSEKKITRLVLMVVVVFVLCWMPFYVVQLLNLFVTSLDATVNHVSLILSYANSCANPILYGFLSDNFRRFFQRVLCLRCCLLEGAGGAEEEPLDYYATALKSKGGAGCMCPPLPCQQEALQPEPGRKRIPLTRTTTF
T5 sequence (P35346 whole entry): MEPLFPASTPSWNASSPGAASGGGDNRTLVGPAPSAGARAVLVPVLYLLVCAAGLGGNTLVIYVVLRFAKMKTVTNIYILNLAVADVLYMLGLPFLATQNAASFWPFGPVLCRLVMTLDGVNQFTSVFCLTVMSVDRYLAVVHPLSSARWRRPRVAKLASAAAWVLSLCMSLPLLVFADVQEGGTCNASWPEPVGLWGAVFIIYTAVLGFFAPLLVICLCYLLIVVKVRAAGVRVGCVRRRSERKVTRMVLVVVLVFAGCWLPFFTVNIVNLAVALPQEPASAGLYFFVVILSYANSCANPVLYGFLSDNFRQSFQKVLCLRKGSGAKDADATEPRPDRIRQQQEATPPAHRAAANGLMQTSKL
T3 sequence (P32745 whole entry): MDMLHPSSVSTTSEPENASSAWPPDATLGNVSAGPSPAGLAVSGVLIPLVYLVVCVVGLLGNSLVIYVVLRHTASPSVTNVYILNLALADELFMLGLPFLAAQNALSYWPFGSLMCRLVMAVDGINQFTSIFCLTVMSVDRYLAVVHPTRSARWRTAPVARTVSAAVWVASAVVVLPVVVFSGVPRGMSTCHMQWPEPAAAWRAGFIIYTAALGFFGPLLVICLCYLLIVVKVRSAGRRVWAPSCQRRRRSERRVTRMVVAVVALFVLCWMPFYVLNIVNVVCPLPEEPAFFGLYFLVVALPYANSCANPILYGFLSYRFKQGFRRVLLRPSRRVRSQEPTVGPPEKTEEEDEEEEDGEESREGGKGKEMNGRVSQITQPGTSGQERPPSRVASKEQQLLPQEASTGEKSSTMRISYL

For `C[C@@H](O)[C@@H]1NC(=O)[C@H](CCCCN)NC(=O)[C@H](Cc2c[nH]c3ccccc23)NC(=O)[C@H](Cc2ccc(N)cc2)NC(=O)[C@H](Cc2ccccc2)NC(=O)[C@@H](N)CSSC[C@@H](C(=O)O)NC(=O)[C@H](Cc2ccccc2)NC1=O` [Peptide No. 1, (cyclo)H-Cys-Phe-4Aph-Trp-Lys-Thr-Phe-Cys-OH], the “effect on binding of the SRIF-28 radioligand to human SSTR1” value at hSSTR1 (at 100 nM) is “minimal effects”. Besides, the “effect on binding of the SRIF-28 radioligand to human SSTR2” value on hSSTR2 (at 100 nM) is reported as “minimal effects”. Further, the “effect on binding of the SRIF-28 radioligand to SSTR3” value on hSSTR3 (at 100 nM) is “very minimal effect”. At hSSTR4, the “selectivity in binding to SSTR4 compared with the other 4 receptors (in words)” value (“selectivity in binding to SSTR4” for short) is reported as “selectively bound to SSTR4”; the IC50 was ~1.2 nM and 1.2 nM. Also, the “effect on binding of the SRIF-28 radioligand to SSTR5” value on hSSTR5 (at 100 nM) is “very minimal effect”. Besides, the concentration for half-maximal inhibition (IC50) at hSSTR5 (setting [1]) was 1000 nM.
Take `C[C@@H](O)[C@@H]1NC(=O)[C@H](CCCCN)NC(=O)[C@H](Cc2ccc3ccccc3c2)NC(=O)[C@H](Cc2ccc(N)cc2)NC(=O)[C@H](Cc2ccccc2)NC(=O)[C@@H](N)CSSC[C@@H](C(=O)O)NC(=O)[C@H](Cc2ccccc2)NC1=O` [Peptide No. 5, (cyclo)H-Cys-Phe-4Aph-2Nal-Lys-Thr-Phe-Cys-OH] (H-CF[Phe(4-NH2)][2Nal]KTFC-OH; disulfide 1-8): the IC50 at hSSTR2 (setting [1]) was more than 1000 nM.
Consider `C[C@@H]1NC(=O)[C@H](Cc2ccccc2)NC(=O)[C@@H](N)CSSC[C@@H](C(=O)O)NC(=O)[C@H](Cc2ccccc2)NC(=O)[C@H]([C@@H](C)O)NC(=O)[C@H](CCCCN)NC(=O)[C@H](Cc2c[nH]c3ccccc23)NC1=O` [Peptide No. 12] (H-CFAWKTFC-OH; disulfide 1-8), for which, on hSSTR1, the “concentration below which it does not bind to human SSTR1” value is reported as not below 750 nM. For the same molecule, the “concentration below which it does not bind to human SSTR2” value at hSSTR2 was not below 750 nM. At hSSTR3, the “concentration below which it does not bind to human SSTR3” value is on record as not below 750 nM. Also, on hSSTR4, the “selectivity in binding to SSTR4” value is reported as “likewise selective”; the half-maximal inhibitory concentration (IC50) is ~0.84 nM and 0.84 nM. In addition, the “concentration below which it does not bind to human SSTR5” value on hSSTR5 was not below 630 nM.
Take `C[C@H](c1ccc2ccccc2c1)[C@@H]1NC(=O)[C@H](Cc2ccc(O)cc2)NC(=O)[C@H](Cc2ccccc2)NC(=O)[C@H](N)CSSC[C@@H](C(=O)O)NC(=O)[C@H](Cc2ccccc2)NC(=O)[C@H]([C@@H](C)O)NC(=O)[C@H](CCCCN)NC1=O` [Peptide No. 16A, (cyclo)H-D-Cys-Phe-Tyr-threo-(2S,3R)C^βMe-2Nal-Lys-Thr-Phe-Cys-OH] (H-[dC]FY[X1]KTFC-OH; disulfide 1-8): the values for the IC50 at hSSTR1 and at hSSTR4 were more than 10000 nM and 3.5 ± 0.5 nM, respectively. For the same molecule, the “selectivity for SSTR4 over the closest other receptor” value at hSSTR4 is recorded as “more than 100 times”.
Molecule `C[C@H](c1ccc2ccccc2c1)[C@@H]1NC(=O)[C@H](Cc2ccc(O)cc2)NC(=O)[C@H](Cc2ccccc2)NC(=O)[C@@H](N)CSSC[C@@H](C(=O)O)NC(=O)[C@H](Cc2ccccc2)NC(=O)[C@H]([C@@H](C)O)NC(=O)[C@H](CCCCN)NC1=O` [Peptide No. 17A, (cyclo)H-Cys-Phe-Tyr-threo-(2S,3R)C^βMe-2Nal-Lys-Thr-Phe-Cys-OH] (H-CFY[X1]KTFC-OH; disulfide 1-8) gave an IC50 at hSSTR1 of more than 1000 nM. At hSSTR4, the “selectivity for SSTR4 over the closest other receptor” value is given as approximately 100 times and the “selectivity in binding to SSTR4” value is recorded as “show selectivity for binding to SSTR4”.
